Results: patent EP0256909B1, “N,N-bis-(4-fluorophenyl) carbamoyl acetohydroxamic acid and pharmaceutical composition containing it” (priority 1986, dated 1988)

Experiments:
souris [1] = experiment: Pretoxicity (3 mice per dose); conditions: intraperitoneal, mouse
Protocol: (§1) Le CRL 41131, en suspension dans une solution de gomme arabique à 5%, a été administré par voie intrapéritonéale sous un volume de 20 ml/kg chez la souris (mâle, NMRI, Evic Ceba) et de 5 ml/kg chez le rat (mâle, CD1, Sprague Dawley, Charles River).

rat = experiment: Search for stereotyped movements; assay type: in vivo; conditions: for mouvements stéréotypés (cotes): 22 h 30 min after administration, scored 0 to 3
Protocol: as §1

in vivo = conditions: mouse, in vivo, ip; for LD50 at 48 h: 48 h after administration; for LD50 at 72 h: 72 h after administration; for LD50 at 24 h: dose létale 50% (DL50), 24 h after administration; for selectivity ratio: rapport, LD50 ratio isolated/grouped mice (formula not readable)
Protocol: as §1
(§2) Aussitôt après l'administration de CRL 41131, les souris groupées par lots de 10 sont placées dans des boîtes en Plexiglass (20 x 10 x 10 cm).
(§3) On note le nombre d'animaux morts, toutes les heures pendant 4 h et après 24, 48 et 72 h.
(§4) La toxicité du CRL 41131 est déterminée dans les mêmes conditions sur des lots de souris placées à raison d'une par boîte.

souris [2] = experiment: in vivo; conditions: 24 h after administration
Protocol: as §1, §2, §3, §4

## O=C(CC(=O)N(c1ccc(F)cc1)c1ccc(F)cc1)NO [CRL 41131, acide N,N-bis-(4-fluorophényl) carbamoylacétohydroxamique]
Souris [1]; 512 mg/kg
  Prétoxicité: signes observés: sédation, crampes abdominales, diminution de la fréquence respiratoire pendant 30 min, puis excitation. A 24 h : excitation et stéréotypies
Souris [1]; 1024 mg/kg
  Prétoxicité: signes observés: sédation, crampes abdominales, diminution de la fréquence respiratoire pendant 30 min, puis excitation. A 24 h : excitation, stéréotypies et convulsions
Souris [1]; 128 et 256 mg/kg
  Prétoxicité: signes observés: à partir de 30 min : excitation; à 24 h, l'excitation est encore présente, et présence de stéréotypies
Souris [1]; 128 to 1024 mg/kg
  mortalité: Aucune mortalité
rat; 64 mg/kg i.p.
  mouvements stéréotypés (cotes): 1
rat; 128 mg/kg i.p.
  mouvements stéréotypés (cotes): 2
rat; 256 mg/kg i.p.
  mouvements stéréotypés (cotes): 3
rat; 128 et 256 mg/kg i.p.
  mouvements stéréotypés persistant pendant: > 30 h
rat; from the lowest dose used, 64 mg/kg i.p.
  mouvements stéréotypés: provoque l'apparition de mouvements stéréotypés
In vivo; DL50, grouped mice
  LD50 at 48 h: ~480 mg/kg
  LD50 at 72 h: ~370 mg/kg
In vivo; DL50, isolated mice
  LD50 at 48 h: ~300 mg/kg
  LD50 at 72 h: ~1100 mg/kg
In vivo; grouped mice
  LD50 at 24 h: ~700 mg/kg
In vivo; isolated mice
  LD50 at 24 h: ~500 mg/kg
In vivo; 48 h
  selectivity ratio: 2.7
In vivo; 72 h
  selectivity ratio: 2.97
Souris [2]
  toxicité chez les souris groupées par rapport aux souris isolées: modérément plus toxique chez les souris groupées
